# From the supplement of paper PMC11208160
# Assay: recombinant barcode read abundance after kanamycin selection (control-corrected) (log10(CPM+1)); higher = more efficient recombination; sequences stand for … in AGTGCAGAGAAAATCGGCCAGTTTTCTCTGCCTGCAGTCCGCATGCCGT…ATTTATGCAGCGGACTGCCTTTCTCCCAAAGTGATAAACCGGACAGTATCATGGACCGGTTTTCCCGGTAATCCGTATTTGCAAGGTTGGTTTCACT; site = the 11-nt target
# Outline: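 A promoter, a target, a barcode and the first 104 bridge RNA bases under J23119 made up each oligo. Oligos were Gibson-cloned into a vector bearing the other 73 bp and a T7-inducible recombinase, then co-electroporated into E. coli with a donor plasmid and plated in duplicate on chloramphenicol/ampicillin LB agar (control) or chloramphenicol/ampicillin/kanamycin with 0.1 mM IPTG. Recombination efficiency is the averaged, control-corrected counts per million of recombinant-junction barcodes. Reported values are log10(CPM+1).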
row,Sequence,recombinant barcode read abundance (log10)
1,"GGGCGTGGCTGGGTTCTAACCTGTTGCCTGC [GGGCGTGCTAG_LTGcore_GC_RTGcore_GC] (site GGGCGTGCTAG) (LTG core: GC, RTG core: GC)",0
2,"GGGCGTGGGTGGGTTCTAACCTGTTGCCTAG [GGGCGTGCTAG_LTGcore_GG_RTGcore_CT] (site GGGCGTGCTAG) (LTG core: GG, RTG core: CT)",0.188
3,"GGGCGTGGTTGGGTTCTAACCTGTTGCCTAG [GGGCGTGCTAG_LTGcore_GT_RTGcore_CT] (site GGGCGTGCTAG) (LTG core: GT, RTG core: CT)",0.0791
4,"GGGCGTGTCTGGGTTCTAACCTGTTGCCTAG [GGGCGTGCTAG_LTGcore_TC_RTGcore_CT] (site GGGCGTGCTAG) (LTG core: TC, RTG core: CT)",0.241
5,"GGGCGTGTTTGGGTTCTAACCTGTTGCCTAA [GGGCGTGCTAG_LTGcore_TT_RTGcore_TT] (site GGGCGTGCTAG) (LTG core: TT, RTG core: TT)",0.0616
6,"GGTGCCCAATGGGTTCTAACCTGTTGCCGTT [GGTGCCCCTCG_LTGcore_AA_RTGcore_AA] (site GGTGCCCCTCG) (LTG core: AA, RTG core: AA)",0.404
7,"GGTGCCCATTGGGTTCTAACCTGTTGCCGAT [GGTGCCCCTCG_LTGcore_AT_RTGcore_AT] (site GGTGCCCCTCG) (LTG core: AT, RTG core: AT)",0.0482
8,"GGTGCCCCCTGGGTTCTAACCTGTTGCCGAG [GGTGCCCCTCG_LTGcore_CC_RTGcore_CT] (site GGTGCCCCTCG) (LTG core: CC, RTG core: CT)",0.15
9,"GGTGCCCCCTGGGTTCTAACCTGTTGCCGGG [GGTGCCCCTCG_LTGcore_CC_RTGcore_CC] (site GGTGCCCCTCG) (LTG core: CC, RTG core: CC)",0.387
10,"GGTGCCCCGTGGGTTCTAACCTGTTGCCGAG [GGTGCCCCTCG_LTGcore_CG_RTGcore_CT] (site GGTGCCCCTCG) (LTG core: CG, RTG core: CT)",0.0559
11,"GGTGCCCCGTGGGTTCTAACCTGTTGCCGCG [GGTGCCCCTCG_LTGcore_CG_RTGcore_CG] (site GGTGCCCCTCG) (LTG core: CG, RTG core: CG)",0.329
12,"GGTGCCCCTTGGGTTCTAACCTGTTGCCGGA [GGTGCCCCTCG_LTGcore_CT_RTGcore_TC] (site GGTGCCCCTCG) (LTG core: CT, RTG core: TC)",0.0539
13,"GGTGCCCCTTGGGTTCTAACCTGTTGCCGGG [GGTGCCCCTCG_LTGcore_CT_RTGcore_CC] (site GGTGCCCCTCG) (LTG core: CT, RTG core: CC)",0.295
14,"GGTGCCCCTTGGGTTCTAACCTGTTGCCGTG [GGTGCCCCTCG_LTGcore_CT_RTGcore_CA] (site GGTGCCCCTCG) (LTG core: CT, RTG core: CA)",0.126
15,"GGTGCCCGCTGGGTTCTAACCTGTTGCCGGC [GGTGCCCCTCG_LTGcore_GC_RTGcore_GC] (site GGTGCCCCTCG) (LTG core: GC, RTG core: GC)",0.148
16,"GGTGCCCTATGGGTTCTAACCTGTTGCCGTA [GGTGCCCCTCG_LTGcore_TA_RTGcore_TA] (site GGTGCCCCTCG) (LTG core: TA, RTG core: TA)",0.298
17,"GGTGCCCTGTGGGTTCTAACCTGTTGCCGAG [GGTGCCCCTCG_LTGcore_TG_RTGcore_CT] (site GGTGCCCCTCG) (LTG core: TG, RTG core: CT)",0.108
18,"GTCGCCCAATGGGTTCTAACCTGTTGCTATT [GTCGCCCCTTA_LTGcore_AA_RTGcore_AA] (site GTCGCCCCTTA) (LTG core: AA, RTG core: AA)",0.305
19,"GTCGCCCCGTGGGTTCTAACCTGTTGCTACG [GTCGCCCCTTA_LTGcore_CG_RTGcore_CG] (site GTCGCCCCTTA) (LTG core: CG, RTG core: CG)",0.316
20,"GTCGCCCCTTGGGTTCTAACCTGTTGCTAAC [GTCGCCCCTTA_LTGcore_CT_RTGcore_GT] (site GTCGCCCCTTA) (LTG core: CT, RTG core: GT)",0.102
21,"GTCGCCCCTTGGGTTCTAACCTGTTGCTAAG [GTCGCCCCTTA_LTGcore_CT_RTGcore_CT] (site GTCGCCCCTTA) (LTG core: CT, RTG core: CT)",0.234
22,"GTCGCCCCTTGGGTTCTAACCTGTTGCTATA [GTCGCCCCTTA_LTGcore_CT_RTGcore_TA] (site GTCGCCCCTTA) (LTG core: CT, RTG core: TA)",0.0812

row,Sequence,recombinant barcode read abundance (log10)
1,"GTCGCCCCTTGGGTTCTAACCTGTTGCTATG [GTCGCCCCTTA_LTGcore_CT_RTGcore_CA] (site GTCGCCCCTTA) (LTG core: CT, RTG core: CA)",0.725
2,"GTCGCCCCTTGGGTTCTAACCTGTTGCTATT [GTCGCCCCTTA_LTGcore_CT_RTGcore_AA] (site GTCGCCCCTTA) (LTG core: CT, RTG core: AA)",0.214
3,"GTCGCCCGGTGGGTTCTAACCTGTTGCTAAG [GTCGCCCCTTA_LTGcore_GG_RTGcore_CT] (site GTCGCCCCTTA) (LTG core: GG, RTG core: CT)",0.0246
4,"GTCGCCCGTTGGGTTCTAACCTGTTGCTAAC [GTCGCCCCTTA_LTGcore_GT_RTGcore_GT] (site GTCGCCCCTTA) (LTG core: GT, RTG core: GT)",0.146
5,"GTCGCCCTATGGGTTCTAACCTGTTGCTATA [GTCGCCCCTTA_LTGcore_TA_RTGcore_TA] (site GTCGCCCCTTA) (LTG core: TA, RTG core: TA)",0.394
6,"GTCGCCCTTTGGGTTCTAACCTGTTGCTAAA [GTCGCCCCTTA_LTGcore_TT_RTGcore_TT] (site GTCGCCCCTTA) (LTG core: TT, RTG core: TT)",0.0974
7,"GTCGCCCTTTGGGTTCTAACCTGTTGCTAAG [GTCGCCCCTTA_LTGcore_TT_RTGcore_CT] (site GTCGCCCCTTA) (LTG core: TT, RTG core: CT)",0.137
8,"TAAGAATAATGGGTTCTAACCTGTTGCCTAG [TAAGAATCTAG_LTGcore_AA_RTGcore_CT] (site TAAGAATCTAG) (LTG core: AA, RTG core: CT)",0.232
9,"TAAGAATATTGGGTTCTAACCTGTTGCCTAG [TAAGAATCTAG_LTGcore_AT_RTGcore_CT] (site TAAGAATCTAG) (LTG core: AT, RTG core: CT)",0.124
10,"TAAGAATCATGGGTTCTAACCTGTTGCCTTG [TAAGAATCTAG_LTGcore_CA_RTGcore_CA] (site TAAGAATCTAG) (LTG core: CA, RTG core: CA)",1.03
11,"TAAGAATCGTGGGTTCTAACCTGTTGCCTCG [TAAGAATCTAG_LTGcore_CG_RTGcore_CG] (site TAAGAATCTAG) (LTG core: CG, RTG core: CG)",0.0781
12,"TAAGAATCTTGGGTTCTAACCTGTTGCCTAG [TAAGAATCTAG_LTGcore_CT_RTGcore_CT] (site TAAGAATCTAG) (LTG core: CT, RTG core: CT)",1.3
13,"TAAGAATCTTGGGTTCTAACCTGTTGCCTAT [TAAGAATCTAG_LTGcore_CT_RTGcore_AT] (site TAAGAATCTAG) (LTG core: CT, RTG core: AT)",0.0438
14,"TAAGAATCTTGGGTTCTAACCTGTTGCCTTA [TAAGAATCTAG_LTGcore_CT_RTGcore_TA] (site TAAGAATCTAG) (LTG core: CT, RTG core: TA)",0.138
15,"TAAGAATCTTGGGTTCTAACCTGTTGCCTTC [TAAGAATCTAG_LTGcore_CT_RTGcore_GA] (site TAAGAATCTAG) (LTG core: CT, RTG core: GA)",0.243
16,"TAAGAATGATGGGTTCTAACCTGTTGCCTTC [TAAGAATCTAG_LTGcore_GA_RTGcore_GA] (site TAAGAATCTAG) (LTG core: GA, RTG core: GA)",0.176
17,"TAAGAATTGTGGGTTCTAACCTGTTGCCTAG [TAAGAATCTAG_LTGcore_TG_RTGcore_CT] (site TAAGAATCTAG) (LTG core: TG, RTG core: CT)",0.153
18,"TAAGAATTTTGGGTTCTAACCTGTTGCCTAA [TAAGAATCTAG_LTGcore_TT_RTGcore_TT] (site TAAGAATCTAG) (LTG core: TT, RTG core: TT)",0.156
19,"TAGAGGGATTGGGTTCTAACCTGTTGCGGAT [TAGAGGGCTCC_LTGcore_AT_RTGcore_AT] (site TAGAGGGCTCC) (LTG core: AT, RTG core: AT)",0.237
20,"TAGAGGGCCTGGGTTCTAACCTGTTGCGGAG [TAGAGGGCTCC_LTGcore_CC_RTGcore_CT] (site TAGAGGGCTCC) (LTG core: CC, RTG core: CT)",2.4
21,"TAGAGGGCTTGGGTTCTAACCTGTTGCGGAT [TAGAGGGCTCC_LTGcore_CT_RTGcore_AT] (site TAGAGGGCTCC) (LTG core: CT, RTG core: AT)",0.779
